Results from patent US20060089378A1 (priority 2004, published 2006).
Where two headings read alike, the source gives them in different places.

Assays:
[1] = molecular target: T1, Cannabinoid CB2 Receptor (Homo sapiens, UniProt P34972); assay: Binding assay for CB2 agonists or inverse agonists (radioligand competition, membranes of transfected SK-N-MC cells); conditions: for inhibition at 0.2 µM: read-out: Cannabinoid CB2 Receptor Binding percent inhibition
T1 construct: expressed in transfected cells

[2] = molecular target: T2, Cannabinoid CB1 Receptor (Homo sapiens, UniProt P21554); assay: Binding assay for CB1 agonists or inverse agonists (radioligand competition, membranes of transfected SK-N-MC cells)
T2 construct: expressed in transfected cells

[3] = molecular target: CB1 receptor (human) (Homo sapiens, UniProt P21554); assay: cell-based
[4] = test concentration of 0.2 μM, compounds without an IC50 binding value

T1 sequence (P34972 whole entry): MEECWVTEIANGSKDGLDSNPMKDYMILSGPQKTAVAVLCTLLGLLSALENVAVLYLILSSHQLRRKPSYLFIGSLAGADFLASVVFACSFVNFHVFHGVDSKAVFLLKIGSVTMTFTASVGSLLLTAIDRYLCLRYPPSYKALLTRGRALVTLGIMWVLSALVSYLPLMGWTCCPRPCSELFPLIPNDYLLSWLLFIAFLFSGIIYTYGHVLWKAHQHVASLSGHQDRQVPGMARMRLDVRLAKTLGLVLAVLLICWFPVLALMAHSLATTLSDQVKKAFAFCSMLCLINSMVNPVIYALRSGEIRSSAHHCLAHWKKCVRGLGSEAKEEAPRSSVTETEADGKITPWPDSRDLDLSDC
T2 sequence (P21554 whole entry): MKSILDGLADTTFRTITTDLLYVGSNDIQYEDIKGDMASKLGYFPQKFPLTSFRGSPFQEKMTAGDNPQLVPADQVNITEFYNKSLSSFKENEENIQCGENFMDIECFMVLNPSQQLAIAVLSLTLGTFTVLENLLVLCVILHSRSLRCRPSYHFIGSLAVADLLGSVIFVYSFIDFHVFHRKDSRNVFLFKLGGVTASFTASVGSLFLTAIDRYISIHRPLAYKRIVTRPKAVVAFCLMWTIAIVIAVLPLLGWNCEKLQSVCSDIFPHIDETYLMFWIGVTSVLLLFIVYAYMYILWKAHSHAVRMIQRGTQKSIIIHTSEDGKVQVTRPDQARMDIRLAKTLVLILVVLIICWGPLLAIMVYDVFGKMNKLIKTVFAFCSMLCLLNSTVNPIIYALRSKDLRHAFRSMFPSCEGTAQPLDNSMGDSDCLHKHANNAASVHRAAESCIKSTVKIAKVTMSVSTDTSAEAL
Sequence of CB1 receptor (human) (P21554 whole entry): as above

Compound	inhibition at 0.2 µM [1]	IC50 [2]	EC50 [3]	Cannabinoid CB2 Receptor Binding percent inhibition [1, 4]	inhibition at 0.2 µM [1, 4]
C[C@@H](NC(=O)c1nn(-c2ccc(Cl)cc2Cl)c2c1CNC/C2=C\c1ccc(F)cc1)C1CCCCC1 [Cpd 28, (7E)-1-(2,4-dichloro-phenyl)-7-(4-fluoro-benzylidene)-4,5,6,7-tetrahydro-1H-pyrazolo[4,3-c]pyridine-3-carboxylic acid [(1R)-1-cyclohexyl-ethyl]-amide]	31%	20 nM	8 nM		
CC(NC(=O)c1nn(-c2ccc(Cl)cc2Cl)c2c1CN(C)C/C2=C\c1ccc(F)cc1)c1ccccn1 (stereo not drawn) [Cpd 29, (7E)-1-(2,4-dichloro-phenyl)-7-(4-fluoro-benzylidene)-5-methyl-4,5,6,7-tetrahydro-1H-pyrazolo[4,3-c]pyridine-3-carboxylic acid (1-pyridin-2-yl-ethyl)-amide]	6%	60 nM	6 nM		
C[C@@H](NC(=O)c1nn(-c2ccc(Cl)cc2Cl)c2c1CN(S(C)(=O)=O)C/C2=C\c1ccc(F)cc1)C1CCCCC1 [Cpd 30, (7E)-1-(2,4-dichloro-phenyl)-7-(4-fluoro-benzylidene)-5-methanesulfonyl-4,5,6,7-tetrahydro-1H-pyrazolo[4,3-c]pyridine-3-carboxylic acid [(1R)-1-cyclohexyl-ethyl]-amide]	1%	7 nM	1 nM		
Cc1ccc(S(=O)(=O)N2C/C(=C\c3ccc(F)cc3)c3c(c(C(=O)N[C@H](C)C4CCCCC4)nn3-c3ccc(Cl)cc3Cl)C2)cc1 [Cpd 31, (7E)-1-(2,4-dichloro-phenyl)-7-(4-fluoro-benzylidene)-5-(toluene-4-sulfonyl)-4,5,6,7-tetrahydro-1H-pyrazolo[4,3-c]pyridine-3-carboxylic acid [(1R)-1-cyclohexyl-ethyl]-amide]		30 nM	1100 nM	29%	
CCNC(=O)N1C/C(=C\c2ccc(F)cc2)c2c(c(C(=O)N[C@H](C)C3CCCCC3)nn2-c2ccc(Cl)cc2Cl)C1 [Cpd 32, (7E)-1-(2,4-dichloro-phenyl)-7-(4-fluoro-benzylidene)-1,4,6,7-tetrahydro-pyrazolo[4,3-c]pyridine-3,5-dicarboxylic acid 3-{[(1R)-1-cyclohexyl-ethyl]-amide} 5-ethylamide]	6%	20 nM	3 nM		
CS(=O)(=O)N1C/C(=C\c2ccc(F)cc2)c2c(c(C(=O)NN3CCCCC3)nn2-c2ccc(Cl)cc2Cl)C1 [Cpd 33, (7E)-1-(2,4-dichloro-phenyl)-7-(4-fluoro-benzylidene)-5-methanesulfonyl-4,5,6,7-tetrahydro-1H-pyrazolo[4,3-c]pyridine-3-carboxylic acid piperidin-1-ylamide]	15%	30 nM	9 nM		
CCNC(=O)N1C/C(=C\c2ccc(F)cc2)c2c(c(C(=O)NN3CCCCC3)nn2-c2ccc(Cl)cc2Cl)C1 [Cpd 34, (7E)-1-(2,4-dichloro-phenyl)-7-(4-fluoro-benzylidene)-1,4,6,7-tetrahydro-pyrazolo[4,3-c]pyridine-3,5-dicarboxylic acid 5-ethylamide 3-piperidin-1-ylamide]	12%	50 nM	9 nM		
COc1ccc(/C=C2\CN(C(=O)OC(C)(C)C)Cc3c(C(=O)N[C@H](C)c4ccccc4)nn(-c4ccc(Cl)cc4Cl)c32)cc1 [Cpd 35, (7E)-1-(2,4-dichloro-phenyl)-7-(4-methoxy-benzylidene)-3-[(1R)-1-phenyl-ethylcarbamoyl]-1,4,6,7-tetrahydro-pyrazolo[4,3-c]pyridine-5-carboxylic acid tert-butyl ester]	27%	20 nM	4 nM		
COc1ccc(/C=C2\CN(C(=O)OC(C)(C)C)Cc3c(C(=O)NC(C)c4ccccn4)nn(-c4ccc(Cl)cc4Cl)c32)cc1 (stereo not drawn) [Cpd 36, (7E)-1-(2,4-dichloro-phenyl)-7-(4-methoxy-benzylidene)-3-(1-pyridin-2-yl-ethylcarbamoyl)-1,4,6,7-tetrahydro-pyrazolo[4,3-c]pyridine-5-carboxylic acid tert-butyl ester]	27%	40 nM	6 nM		
COc1ccc(/C=C2\CN(C(=O)OC(C)(C)C)Cc3c(C(=O)NN4CCCCC4)nn(-c4ccc(Cl)cc4Cl)c32)cc1 [Cpd 37, (7E)-1-(2,4-dichloro-phenyl)-7-(4-methoxy-benzylidene)-3-(piperidin-1-ylcarbamoyl)-1,4,6,7-tetrahydro-pyrazolo[4,3-c]pyridine-5-carboxylic acid tert-butyl ester]	27%	90 nM	5 nM		
COc1ccc(/C=C2\CNCc3c(C(=O)N[C@H](C)c4ccccc4)nn(-c4ccc(Cl)cc4Cl)c32)cc1 [Cpd 38, (7E)-1-(2,4-dichloro-phenyl)-7-(4-methoxy-benzylidene)-4,5,6,7-tetrahydro-1H-pyrazolo[4,3-c]pyridine-3-carboxylic acid [(1R)-1-phenyl-ethyl]-amide]	25%	10 nM	5 nM		
C[C@@H](NC(=O)c1nn(-c2ccc(Cl)cc2Cl)c2c1CN(S(=O)(=O)N(C)C)C/C2=C\c1ccc(F)cc1)c1ccccc1 [Cpd 39, (7E)-1-(2,4-dichloro-phenyl)-5-dimethylsulfamoyl-7-(4-fluoro-benzylidene)-4,5,6,7-tetrahydro-1H-pyrazolo[4,3-c]pyridine-3-carboxylic acid [(1R)-1-phenyl-ethyl]-amide]		2 nM	1 nM		42%
COc1ccc(/C=C2\CN(S(C)(=O)=O)Cc3c(C(=O)N[C@H](C)c4ccccc4)nn(-c4ccc(Cl)cc4Cl)c32)cc1 [Cpd 40, (7E)-1-(2,4-dichloro-phenyl)-5-methanesulfonyl-7-(4-methoxy-benzylidene)-4,5,6,7-tetrahydro-1H-pyrazolo[4,3-c]pyridine-3-carboxylic acid [(1R)-1-phenyl-ethyl]-amide]	47%	2 nM	1 nM		
CCNC(=O)N1C/C(=C\c2ccc(OC)cc2)c2c(c(C(=O)N[C@H](C)c3ccccc3)nn2-c2ccc(Cl)cc2Cl)C1 [Cpd 41, (7E)-1-(2,4-dichloro-phenyl)-7-(4-methoxy-benzylidene)-1,4,6,7-tetrahydro-pyrazolo[4,3-c]pyridine-3,5-dicarboxylic acid 5-ethylamide 3-{[(1R)-1-phenyl-ethyl]-amide}]	27%	9 nM	0.2 nM		
COc1ccc(/C=C2\CN(C(C)=O)Cc3c(C(=O)N[C@H](C)c4ccccc4)nn(-c4ccc(Cl)cc4Cl)c32)cc1 [Cpd 42, (7E)-5-acetyl-1-(2,4-dichloro-phenyl)-7-(4-methoxy-benzylidene)-4,5,6,7-tetrahydro-1H-pyrazolo[4,3-c]pyridine-3-carboxylic acid [(1R)-1-phenyl-ethyl]-amide]	38%	5 nM	1 nM		
CCOC(=O)CN1C/C(=C\c2ccc(F)cc2)c2c(c(C(=O)N[C@H](C)c3ccccc3)nn2-c2ccc(Cl)cc2Cl)C1 [Cpd 43, (7E)-[1-(2,4-dichloro-phenyl)-7-(4-fluoro-benzylidene)-3-[(1R)-1-phenyl-ethylcarbamoyl]-1,4,6,7-tetrahydro-pyrazolo[4,3-c]pyridin-5-yl]-acetic acid ethyl ester]	36%	2 nM	0.6 nM		
COC(=O)N1C/C(=C\c2ccc(OC)cc2)c2c(c(C(=O)N[C@H](C)c3ccccc3)nn2-c2ccc(Cl)cc2Cl)C1 [Cpd 44]	69%	2 nM	0.2 nM		
COc1ccc(/C=C2\CN(C=O)Cc3c(C(=O)N[C@H](C)c4ccccc4)nn(-c4ccc(Cl)cc4Cl)c32)cc1 [Cpd 45, (7E)-1-(2,4-dichloro-phenyl)-5-formyl-7-(4-methoxy-benzylidene)-4,5,6,7-tetrahydro-1H-pyrazolo[4,3-c]pyridine-3-carboxylic acid [(1R)-1-phenyl-ethyl]-amide]	45%	3 nM	0.1 nM		
C[C@@H](NC(=O)c1nn(-c2ccc(Cl)cc2Cl)c2c1CN(C=O)C/C2=C\c1ccc(F)cc1)c1ccccc1 [Cpd 46, (7E)-1-(2,4-dichloro-phenyl)-7-(4-fluoro-benzylidene)-5-formyl-4,5,6,7-tetrahydro-1H-pyrazolo[4,3-c]pyridine-3-carboxylic acid [(1R)-1-phenyl-ethyl]-amide]	18%	6 nM	0.1 nM		
CCOC(=O)CN1C/C(=C\c2ccc(OC)cc2)c2c(c(C(=O)N[C@H](C)c3ccccc3)nn2-c2ccc(Cl)cc2Cl)C1 [Cpd 48, (7E)-[1-(2,4-dichloro-phenyl)-7-(4-methoxy-benzylidene)-3-[(1R)-1-phenyl-ethylcarbamoyl]-1,4,6,7-tetrahydro-pyrazolo[4,3-c]pyridin-5-yl]-acetic acid ethyl ester]	38%	4 nM	0.2 nM		
COc1ccc(/C=C2\CNCc3c(C(=O)NC(C)c4ccccn4)nn(-c4ccc(Cl)cc4Cl)c32)cc1 (stereo not drawn) [Cpd 49, (7E)-1-(2,4-dichloro-phenyl)-7-(4-methoxy-benzylidene)-4,5,6,7-tetrahydro-1H-pyrazolo[4,3-c]pyridine-3-carboxylic acid (1-pyridin-2-yl-ethyl)-amide]	19%	100 nM	1 nM		
COc1ccc(/C=C2\CNCc3c(C(=O)NN4CCCCC4)nn(-c4ccc(Cl)cc4Cl)c32)cc1 [Cpd 50, (7E)-1-(2,4-dichloro-phenyl)-7-(4-methoxy-benzylidene)-4,5,6,7-tetrahydro-1H-pyrazolo[4,3-c]pyridine-3-carboxylic acid piperidin-1-ylamide]	20%	100 nM	2 nM		
